Measured values reported in patent publication US20250281649A1, “PROBE DIRECTED TO ENZYME ALDH1A3 AND USE THEREOF IN THE DIAGNOSIS OF GLIOBLASTOMA” (Universita' Degli Studi Del Piemonte Orientale "A. Avogadro", priority 2021, published 2025).

Experiments:
[1] = test system: 4T1 mammary carcinoma (triple negative ALDH1A subfamily); assay: Confocal fluorescence of probes in cell lines; assay type: cell-based; conditions: 4T1, 10 μM to 100 nM
Experimental: (§1) All 3 enzymes belonging to the subfamily 1A of aldehyde dehydrogenases were expressed recombinantly in bacterial cells and purified to homogeneity. The pure enzymes were then used to study the interaction with the molecules according to the invention, using various in vitro biochemical assays. In particular, the affinity for the isoenzymes of the selected molecules was measured through the use of a TECAN SPARK and a TECAN SUNRISE. Fluorescence assays were performed in the presence of different protein concentrations and the activity assays were conducted by measuring NAD^+ consumption. According to their specific activity, all molecules were characterized by values of KD, KM, Ki and IC50, showing a net selectivity in specifically binding the ALDH1A3 enzyme. The probes having curcumin and recognizing the ALDH1A3 enzyme were tested in a cellular context, using four different cell lines classified by the presence or absence of the isoform studied: human glioblastoma line (U87MG, ALDH1A3 positive), embryonic kidney cell line (HEK293T, ALDH1A2 positive), human astrocyte line (hAstro, ALDH1A1 positive) and a breast cancer line (4T1, ALDHIA negative). […] The binding ability of the probes to these cell lines was also verified and confirmed by flow cytometry.
(§2) Human U87MG glioblastoma were used as ALDH1A3+ cell lines, HEK293T as ALDH1A2+ cell line, human foetal astrocytes (hASTRO) as ALDH1A1+ cell line and 4T1 mammary carcinoma as triple negative ALDHIA subfamily (checked with Western Blot analysis and RT-PCR). All these cell lines were incubated with Probe 14 and 13 at different concentrations (from 10 μM to 100 nM). At all these concentrations we observed a selectivity of probe 14 and 13 on U87MG cells after 2 h, that appeared to be cytoplasmic, no signal has been verified in HEK293T, hASTRO and 4T1 cell lines. Moreover, we incubated the two probes with cells and analyzed with FACS and we observed a significant positivity in U87MG cells, too.

[2] = test system: human foetal astrocytes (hASTRO, ALDH1A1+); assay: Confocal fluorescence of probes in cell lines; assay type: cell-based; conditions: 10 μM to 100 nM
Experimental: as §1, §2

HEK293T (ALDH1A2+) = assay: Confocal fluorescence of probes in cell lines; assay type: cell-based; conditions: 10 μM to 100 nM
Experimental: as §1, §2

ALDH1A1 = biological target: T1, ALDH1A1 (Homo sapiens, UniProt P00352); assay: KD evaluation by probe fluorescence (Tecan SPARK); assay type: binding; conditions: probe fixed at 10 μM, isoenzyme 100 μM to 1 μM
T1 construct: His-tag; made in house; host or cells: bacterial cells
T1 sequence (P00352 1-501): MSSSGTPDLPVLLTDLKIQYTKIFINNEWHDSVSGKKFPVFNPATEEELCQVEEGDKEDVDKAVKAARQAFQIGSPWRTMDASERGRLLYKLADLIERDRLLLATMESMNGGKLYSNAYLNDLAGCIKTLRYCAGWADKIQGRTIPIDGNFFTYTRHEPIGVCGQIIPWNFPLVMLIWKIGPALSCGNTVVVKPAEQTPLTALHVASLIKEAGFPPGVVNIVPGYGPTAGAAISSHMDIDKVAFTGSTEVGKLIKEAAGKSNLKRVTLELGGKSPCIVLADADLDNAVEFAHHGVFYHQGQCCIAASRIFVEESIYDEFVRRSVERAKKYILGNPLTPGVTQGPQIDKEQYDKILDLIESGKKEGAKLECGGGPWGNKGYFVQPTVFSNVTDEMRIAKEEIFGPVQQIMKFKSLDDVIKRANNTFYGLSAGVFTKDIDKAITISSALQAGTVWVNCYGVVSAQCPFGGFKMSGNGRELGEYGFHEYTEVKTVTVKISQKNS
Experimental: (§3) A common protocol to express and purify all three members of the ALDHIA subfamily has been optimized. Briefly, induced cells, collected by centrifugation, were re-suspended in an appropriate volume of lysis buffer (50 mM Na2HPO4, 300 mM NaCl, 1 mM β-mercaptoethanol, 20 mM imidazole, pH 7.5) added of benzonase nuclease (250 U/μL) and Protease inhibitor cocktail from SIGMA. After ultracentrifugation, the clarified sample was purified by a His-tag affinity chromatography followed by size-exclusion chromatography, using an AKTA FPLC system, at 4° C. To evaluate the purity and homogeneity of the protein, after each purification step, eluted d fractions were analyzed by SDS-PAGE and the protein quantification was always determined by Bradford protein assay.
(§4) KD evaluation: on a Tecan—SPARK, probe 14 and 13 were tested at a fixed concentration of 10 μM. All the isoenzymes were tested in wide range of concentrations (from 100 μM to 1 μM). The analysis was settled with a BW of 20, monitoring the Em wavelength in range comprised between 520 and 535 nm for probe 14 and 520 and 580 nm for probe 13. The Ex was fixed at 420 nm for probe 14 and 440 nm for probe 13. The test was performed in quadruplicate with all the three isoenzymes. The recipe of the buffer reaction was the same as described before.

ALDH1A3 = biological target: T2, ALDH1A3 (Homo sapiens, UniProt P47895); assay: KD evaluation by probe fluorescence (Tecan SPARK); assay type: binding; conditions: ALDH1A3; probe fixed at 10 μM, isoenzyme 100 μM to 1 μM; read-out: KD
T2 construct: His-tag; made in house; host or cells: bacterial cells
T2 sequence (P47895 1-512): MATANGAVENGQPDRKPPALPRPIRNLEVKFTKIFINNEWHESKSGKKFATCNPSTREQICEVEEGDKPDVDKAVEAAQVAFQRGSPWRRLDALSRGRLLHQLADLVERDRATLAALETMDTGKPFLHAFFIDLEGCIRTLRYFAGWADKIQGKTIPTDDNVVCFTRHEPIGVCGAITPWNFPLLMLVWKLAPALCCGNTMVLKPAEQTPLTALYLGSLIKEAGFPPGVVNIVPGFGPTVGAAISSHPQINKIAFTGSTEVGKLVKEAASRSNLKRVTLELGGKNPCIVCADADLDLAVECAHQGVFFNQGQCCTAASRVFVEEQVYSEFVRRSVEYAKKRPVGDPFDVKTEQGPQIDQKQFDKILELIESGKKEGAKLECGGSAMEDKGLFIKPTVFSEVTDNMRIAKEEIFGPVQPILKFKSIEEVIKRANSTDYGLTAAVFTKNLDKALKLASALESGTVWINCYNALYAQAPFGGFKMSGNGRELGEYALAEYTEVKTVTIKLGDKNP
Experimental: as §3, §4

## COc1cc(/C=C/C(=O)/C=C(O)/C=C/c2ccc(OCc3cn(CCOc4ccc(C=O)cc4)nn3)c(OC)c2)ccc1O [Compound 13]
[1]
  fluorescence signal in cells: no signal
[2]
  fluorescence signal in cells: no signal
HEK293T (ALDH1A2+)
  fluorescence signal in cells: no signal
ALDH1A1
  Kd: 31.1 µM
ALDH1A3
  Kd: 38.2 µM

## CCOC(=O)Cn1cc(COc2ccc(/C=C/C(O)=C/C(=O)/C=C/c3ccc(O)c(OC)c3)cc2OC)nn1 [Compound 14]
[1]
  fluorescence signal in cells: no signal
[2]
  fluorescence signal in cells: no signal
HEK293T (ALDH1A2+)
  fluorescence signal in cells: no signal
ALDH1A1
  Kd: 42.4 µM
ALDH1A3
  Kd: 84.3 µM
